Measurements published in US10597388B2, “Pyridazinone herbicides” (FMC CORPORATION, priority 2014, dated 2020).

What was measured:
Assay in all cases: Test D controlled growth environment herbicide test, pre- and postemergence
Type in all cases: in vivo
[1] = test system: canarygrass (Phalaris minor)
How it was run: (§1)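 Rating is visual, 0–100 scale (100 = complete control), made against untreated plants 14–21 d after treatment in controlled growth conditions. Postemergence sprays went onto 1- to 4-leaf plants in peat medium; preemergence sprays onto silt loam after sowing; formulation included a surfactant.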

[2] = test system: galium (catchweed bedstraw, Galium aparine)
How it was run: as §1

[3] = test system: chamomile (scentless chamomile, Matricaria inodora)
How it was run: as §1

[4] = test system: ryegrass, Italian (Italian ryegrass, Lolium multiflorum)
How it was run: as §1

[5] = test system: windgrass (Apera spica-venti)
How it was run: as §1

[6] = test system: foxtail, green (green foxtail, Setaria viridis)
How it was run: as §1

[7] = test system: buckwheat, wild (wild buckwheat, Polygonum convolvulus)
How it was run: as §1

[8] = test system: oilseed rape (Brassica napus)
How it was run: as §1

[9] = test system: deadnettle (henbit deadnettle, Lamium amplexicaule)
How it was run: as §1

[10] = test system: chickweed (common chickweed, Stellaria media)
How it was run: as §1

[11] = test system: bromegrass, downy (downy bromegrass, Bromus tectorum)
How it was run: as §1

[12] = test system: wheat, winter (winter wheat, Triticum aestivum)
How it was run: as §1

[13] = test system: field violet (Viola arvensis)
How it was run: as §1

[14] = test system: lambsquarters (Chenopodium album)
How it was run: as §1

[15] = Postemergence, 31 g ai/ha, scale 0 to 100 (0 no effect, 100 complete control)
[16] = Postemergence, 125 g ai/ha, visual rating on scale 0 (no effect) to 100 (complete control), 14 to 21 d
[17] = Postemergence, 250 g ai/ha, scale 0 to 100 (0 no effect, 100 complete control)
[18] = Preemergence, 125 g ai/ha, scale 0 to 100 (0 no effect, 100 complete control)
[19] = Preemergence, 250 g ai/ha, scale 0 to 100, 0 no effect, 100 complete control
[20] = postemergence, 62 g ai/ha, scale 0 to 100, 0 no effect, 100 complete control
[21] = Preemergence, 62 g ai/ha, scale 0 to 100 (0 no effect, 100 complete control)

CCCC(=O)Oc1c(C)nn(C)c(=O)c1-c1c(C)sc2ccc(C)cc12 [Compound 105]
85: Plant response rating (scale of 0 to 100), Canarygrass ([1]; Preemergence, 31 g ai/ha) | Galium plant response rating [2, 15] | Plant response rating, Galium [2, 18] | Plant response rating, Chamomile [3, 20] | Plant response rating (scale of 0 to 100), Ryegrass, Italian ([4]; Preemergence, 31 g ai/ha) | Plant response rating, Ryegrass, Italian [4, 20] | Plant response rating, Windgrass [5, 17] | Field Violet plant response rating [13, 15] | Lambsquarters plant response rating [14, 15]
35: Plant response rating (scale of 0 to 100), Bromegrass, Downy ([11]; Preemergence, 31 g ai/ha)
98: Plant response rating, Canarygrass [1, 19] | Plant response rating, Ryegrass, Italian [4, 19]
70: Plant response rating, Windgrass [5, 20] | Foxtail, Green plant response rating [6, 15] | Plant response rating, Foxtail, Green [6, 20] | Plant response rating, Bromegrass, Downy [11, 18]
60: Windgrass plant response rating [5, 15] | Plant response rating, Oilseed Rape [8, 17] | Plant response rating (scale of 0 to 100), Oilseed Rape ([8]; Preemergence, 62 g ai/ha)
100: Plant response rating, Galium [2, 17] | Plant response rating, Galium [2, 19] | Plant response rating, Chamomile [3, 16] | Plant response rating, Chamomile [3, 17] | Plant response rating, Foxtail, Green [6, 19] | Plant response rating, Buckwheat, Wild [7, 16] | Plant response rating, Buckwheat, Wild [7, 17] | Plant response rating, Chickweed [10, 16] | Plant response rating, Chickweed [10, 17] | Plant response rating (scale of 0 to 100), Chickweed ([10]; Preemergence, 31 g ai/ha) | Plant response rating (scale of 0 to 100), Chickweed ([10]; Preemergence, 62 g ai/ha) | Plant response rating, Chickweed [10, 18] | Plant response rating, Chickweed [10, 19] | Plant response rating, Field Violet [13, 17] | Plant response rating (scale of 0 to 100), Field Violet ([13]; Preemergence, 31 g ai/ha) | Plant response rating (scale of 0 to 100), Field Violet ([13]; Preemergence, 62 g ai/ha) | Plant response rating, Field Violet [13, 18] | Plant response rating, Field Violet [13, 19] | Plant response rating (scale of 0 to 100), Lambsquarters ([14]; Preemergence, 62 g ai/ha) | Plant response rating, Lambsquarters [14, 18] | Plant response rating, Lambsquarters [14, 19]
65: Plant response rating, Foxtail, Green [6, 18] | Buckwheat, Wild plant response rating [7, 15] | Plant response rating, Deadnettle [9, 19] | Plant response rating, Bromegrass, Downy [11, 17] | Plant response rating, Bromegrass, Downy [11, 21]
10: Deadnettle plant response rating [9, 15] | Plant response rating (scale of 0 to 100), Deadnettle ([9]; Preemergence, 62 g ai/ha) | Plant response rating, Deadnettle [9, 20] | Bromegrass, Downy plant response rating [11, 15] | Plant response rating, Wheat, Winter [12, 16]
90: Plant response rating, Ryegrass, Italian [4, 16] | Plant response rating (scale of 0 to 100), Ryegrass, Italian ([4]; Preemergence, 62 g ai/ha) | Chickweed plant response rating [10, 15] | Plant response rating, Chickweed [10, 20] | Plant response rating, Field Violet [13, 20] | Plant response rating, Lambsquarters [14, 16]
5: Plant response rating, Buckwheat, Wild [7, 21] | Plant response rating, Buckwheat, Wild [7, 18] | Plant response rating, Wheat, Winter [12, 18] | Plant response rating, Wheat, Winter [12, 19] | Plant response rating, Wheat, Winter [12, 20]
25: Plant response rating, Buckwheat, Wild [7, 19] | Plant response rating, Oilseed Rape [8, 16] | Plant response rating, Bromegrass, Downy [11, 16]
75: Plant response rating, Canarygrass [1, 16] | Ryegrass, Italian plant response rating [4, 15] | Plant response rating (scale of 0 to 100), Windgrass ([5]; Preemergence, 31 g ai/ha) | Plant response rating, Foxtail, Green [6, 16] | Plant response rating, Bromegrass, Downy [11, 19]
80: Plant response rating, Canarygrass [1, 17] | Plant response rating (scale of 0 to 100), Galium ([2]; Preemergence, 31 g ai/ha) | Chamomile plant response rating [3, 15] | Plant response rating, Windgrass [5, 16] | Plant response rating (scale of 0 to 100), Windgrass ([5]; Preemergence, 62 g ai/ha) | Plant response rating, Windgrass [5, 18] | Plant response rating, Foxtail, Green [6, 17]
30: Plant response rating, Deadnettle [9, 17]
15: Plant response rating (scale of 0 to 100), Buckwheat, Wild ([7]; Preemergence, 31 g ai/ha) | Plant response rating, Oilseed Rape [8, 20] | Plant response rating, Deadnettle [9, 18]
95: Plant response rating (scale of 0 to 100), Canarygrass ([1]; Preemergence, 62 g ai/ha) | Plant response rating, Canarygrass [1, 18] | Plant response rating, Galium [2, 16] | Plant response rating (scale of 0 to 100), Galium ([2]; Preemergence, 62 g ai/ha) | Plant response rating, Galium [2, 20] | Plant response rating, Ryegrass, Italian [4, 17] | Plant response rating, Ryegrass, Italian [4, 18] | Plant response rating, Windgrass [5, 19] | Plant response rating, Buckwheat, Wild [7, 20] | Plant response rating, Field Violet [13, 16] | Plant response rating, Lambsquarters [14, 17] | Plant response rating (scale of 0 to 100), Lambsquarters ([14]; Preemergence, 31 g ai/ha) | Plant response rating, Lambsquarters [14, 20]
20: Plant response rating, Deadnettle [9, 16] | Plant response rating, Bromegrass, Downy [11, 20] | Plant response rating, Wheat, Winter [12, 17]
50: Plant response rating, Canarygrass [1, 20] | Plant response rating, Oilseed Rape [8, 18] | Plant response rating, Oilseed Rape [8, 19]
45: Plant response rating (scale of 0 to 100), Foxtail, Green ([6]; Preemergence, 31 g ai/ha)
55: Plant response rating (scale of 0 to 100), Foxtail, Green ([6]; Preemergence, 62 g ai/ha) | Plant response rating (scale of 0 to 100), Oilseed Rape ([8]; Preemergence, 31 g ai/ha)
40: Canarygrass plant response rating [1, 15]
0: Oilseed Rape plant response rating [8, 15] | Wheat, Winter plant response rating [12, 15] | Plant response rating (scale of 0 to 100), Wheat, Winter ([12]; Preemergence, 31 g ai/ha) | Plant response rating (scale of 0 to 100), Wheat, Winter ([12]; Preemergence, 62 g ai/ha)
